Measured values: US12297238B2, “FimH mutants, compositions therewith and use thereof” (Janssen Pharmaceuticals, Inc., priority 2021, dated 2025)

Columns and labels:
Settings in all cases: SPR, HBS-N pH 7.4, single cycle kinetics
[1] = molecular target: E. coli FimH lectin domain (FimHLD 23-10, SEQ ID NO: 1) variant R60P-Q133K (Escherichia coli, UniProt P08191, Q154K/R81P/V48A)
Method: (§1) To gain a detailed insight into the binding affinity and kinetics of the interaction of FimH lectin domain variants with the n-Heptyl-α-D-mannopyranoside ligand, surface plasmon resonance (SPR) measurements were performed. In brief, the FimH variants were titrated into the Mannoside ligand 5 surface (Rabbani S et al, J Biol. Chem., 2018, 293(5):1835-1849) with the top concentrations of either 3 or 10 μM in HBS-N(0.01 M HEPES, pH 7.4, 0.15 M NaCl, 3 mM EDTA, 0.05% surfactant P20). The proteins were injected from 0.12 to 10 μM or 0.036 to 3.0 μM using a single cycle kinetics injection.
(§2) These mutants were taken as positive controls. […] Additionally, wild-type (WT) FimH lectin domain was taken along as a negative control.
(§3) The variants affinity for binding to mannose was assessed using SPR.

[2] = molecular target: E. coli FimH lectin domain (FimHLD 23-10, SEQ ID NO: 1) variant F144V/F71Y (Escherichia coli, UniProt P08191, F165V/F92Y/V48A)
Sequence of E. coli FimH lectin domain (FimHLD 23-10, SEQ ID NO: 1) variant F144V/F71Y (P08191 22-180 V48A/F92Y/F165V): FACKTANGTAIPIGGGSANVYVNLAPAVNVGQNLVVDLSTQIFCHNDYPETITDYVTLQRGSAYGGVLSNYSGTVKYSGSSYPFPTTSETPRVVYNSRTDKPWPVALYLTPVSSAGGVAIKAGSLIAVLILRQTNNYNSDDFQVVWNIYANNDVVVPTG
Method: as §1, §2, §3

[3] = molecular target: E. coli FimH lectin domain (FimHLD 23-10, SEQ ID NO: 1) variant F71Y (Escherichia coli, UniProt P08191, F92Y/V48A)
Sequence of E. coli FimH lectin domain (FimHLD 23-10, SEQ ID NO: 1) variant F71Y (P08191 22-180 V48A/F92Y): as the sequence (P08191 22-180 V48A/F92Y/F165V) above, with V144F counted along it
Method: as §1, §2, §3

[4] = molecular target: E. coli FimH lectin domain (FimHLD 23-10, SEQ ID NO: 1) variant Q133K (Escherichia coli, UniProt P08191, Q154K/V48A)
Sequence of E. coli FimH lectin domain (FimHLD 23-10, SEQ ID NO: 1) variant Q133K (P08191 22-180 V48A/Q154K): as the sequence (P08191 22-180 V48A/F92Y/F165V) above, with Y71F, Q133K, V144F counted along it
Method: as §1, §2, §3

[5] = molecular target: E. coli FimH lectin domain (FimHLD 23-10, SEQ ID NO: 1) variant F144V (Escherichia coli, UniProt P08191, F165V/V48A)
Sequence of E. coli FimH lectin domain (FimHLD 23-10, SEQ ID NO: 1) variant F144V (P08191 22-180 V48A/F165V): as the sequence (P08191 22-180 V48A/F92Y/F165V) above, with Y71F counted along it
Method: as §1, §2, §3

[6] = molecular target: E. coli FimH lectin domain (FimHLD 23-10, SEQ ID NO: 1) variant R60P (Escherichia coli, UniProt P08191, R81P/V48A)
Sequence of E. coli FimH lectin domain (FimHLD 23-10, SEQ ID NO: 1) variant R60P (P08191 22-180 V48A/R81P): as the sequence (P08191 22-180 V48A/F92Y/F165V) above, with R60P, Y71F, V144F counted along it
Method: as §1, §2, §3

Sequence of E. coli FimH lectin domain (FimHLD 23-10, SEQ ID NO: 1) variant R60P-Q133K (P08191 22-180 V48A/R81P/Q154K): as the sequence (P08191 22-180 V48A/F92Y/F165V) above, with R60P, Y71F, Q133K, V144F counted along it

CCCCCCCO[C@H]1O[C@H](CO)[C@@H](O)[C@H](O)[C@@H]1O [n-Heptyl-α-D-mannopyranoside]
Affinity (KD) [1]: did not bind to mannoside at all | Affinity (KD) [2]: completely abolished | Affinity (KD) [3]: some affinity | Affinity (KD) [4]: did not bind to mannoside at all | Affinity (KD) [5]: completely abolished | Affinity (KD) [6]: low affinity
